Experiment [1] deals with Cullin-3 (CUL3) neddylation. Kind of experiment: AlphaLISA assay for Cullin-3 (CUL3) neddylation in TF 1 cells. Conditions: 3 hours treatment. The format is cell-based. Summed up:
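Neddylated CUL3 was quantified by AlphaLISA in lysates of TF 1 cells exposed for 3 h to test compound in IMDM without supplements. Percent inhibition set between vehicle and 1 μM DI-1548 positive control; IC50 derived by Hill-equation fitting of dose-response curves.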
On the technique in general: In Alpha technology, singlet oxygen from a donor bead excites a nearby acceptor bead.

Experiment [2] concerns the target DCN1 (DCUND1) protein PONY domain (Homo sapiens (Human), UniProt Q96GG9). As to the kind of experiment: TR-FRET assay, DCN1 binding with FAM-labeled probe. Summed up: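 TR-FRET ratio (Tb-DCN1 to FAM-probe) read at 1, 5 and 24 hrs after compound addition. Protein: recombinant PONY domain from E. coli, biotinylated and coupled to streptavidin terbium. Either 5 nM DCN1 with 20 nM FAM-probe, or 0.31 nM DCN1 with 100 nM FAM-labelled plus 800 nM unlabelled probe.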

Setting [3] is: 24 hr after treatment with compound, read-out: TR FRET IC50 24 hr.
Where [4] appears, read: TR FRET IC50 1 hr (nM), 1 hr after treatment with compound.
Where [5] appears, read: read-out: TR FRET IC50 1 hr, 1 hr after treatment with compound.

Where a name gives a salt, the structure may show the parent alone. Read-outs that look alike come from different tables or passages of the source. Where only a bound is given, the exact number is not on record here.

Sequence of DCN1 (DCUND1) protein PONY domain (Q96GG9 60-248): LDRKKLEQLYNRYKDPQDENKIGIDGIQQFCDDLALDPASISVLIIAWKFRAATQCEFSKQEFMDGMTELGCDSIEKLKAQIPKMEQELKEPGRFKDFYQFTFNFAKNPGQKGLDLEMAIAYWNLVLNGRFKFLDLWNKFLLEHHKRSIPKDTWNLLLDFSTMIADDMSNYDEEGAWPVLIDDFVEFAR

As for `CCN1C(=O)[C@@H](NC(=O)c2cccc(C(F)(F)F)c2)[C@@H](C2CC2)c2c(C(=O)N3[C@H](C)CC[C@H]3C#N)nn(C3CCOCC3)c21` [Compound I-621], the IC50 in experiment [1] (Homo sapiens, TF-1, 3 h) was greater than 1000 nM; in experiment [2] (setting [3]), 1000 to 3000 nM; in experiment [2] (setting [4]), 1000 to 3000 nM.

Take `CCN1C(=O)[C@@H](NC(=O)C(C2CC2)C2CC2)[C@@H](C2CC2)c2c(C(=O)N3[C@H](C#N)C[C@H]4C[C@H]43)nn(C3CCOCC3)c21` [Compound I-699]: the IC50 in experiment [1] (Homo sapiens, TF-1, 3 h) was greater than 1000 nM; in experiment [2] (setting [3]) it was 1000 to 3000 nM; in experiment [2] (setting [4]) it was 1000 to 3000 nM.

With `CCN1C(=O)[C@@H](NC(=O)c2cccc3cccnc23)[C@@H](C2CC2)c2c(C(=O)N3[C@H](C#N)C[C@H]4C[C@H]43)nn(C3CCOCC3)c21` [Compound I-527], the IC50 is 100 to 1000 nM in experiment [1] (Homo sapiens, TF-1, 3 h); no more than 200 nM in experiment [2] (setting [3]); 200 to 1000 nM in experiment [2] (setting [4]).

As to `CCN1C(=O)[C@@H](NC(=O)c2cccc(C(F)(F)F)c2)[C@@H](C2CC2)c2c(C(=O)N3CC[C@@H](NC)[C@@H]3C#N)nn(C3CCOCC3)c21` (relative stereo) [Compound I-421, N-((4S,5S)-3-((2R*,3R*)-2-cyano-3-(methylamino)pyrrolidine-1-carbonyl)-4-cyclopropyl-7-ethyl-6-oxo-1-(tetrahydro-2H-pyran-4-yl)-4,5,6,7-tetrahydro-1H-pyrazolo[3,4-b]pyridin-5-yl)-3-(trifluoromethyl)benzamide], the IC50 in experiment [1] (Homo sapiens, TF-1, 3 h) is 100 to 1000 nM; in experiment [2] (setting [3]), no more than 200 nM; in experiment [2] (setting [4]), 1000 to 3000 nM.

As to `CCN1C(=O)[C@H](NC(=O)c2cccc(C(F)(F)F)c2)[C@@H](c2ccc(F)cc2)c2c([C@@H](C)N(C#N)CCCN(C)C)nn(-c3ccccc3)c21` [Compound I-609, N-((4S,5R)-3-((R)-1-(N-(3-(dimethylamino)propyl)cyanamido)ethyl)-7-ethyl-4-(4-fluorophenyl)-6-oxo-1-phenyl-4,5,6,7-tetrahydro-1H-pyrazolo[3,4-b]pyridin-5-yl)-3-(trifluoromethyl)benzamide formate], the IC50 in experiment [1] (Homo sapiens, TF-1, 3 h) is greater than 1000 nM; in experiment [2] (setting [3]), no more than 200 nM; in experiment [2] (setting [5]) it was no more than 200 nM.

In the case of `CCN1C(=O)[C@@H](NC(=O)[C@H]2C[C@@H]3CCCC[C@@H]3N2)[C@@H](C2CC2)c2c(C(=O)N3[C@H](C#N)C[C@H]4C[C@H]43)nn(C3CCOCC3)c21` [Compound I-566], the IC50 in experiment [1] (Homo sapiens, TF-1, 3 h) was greater than 1000 nM; in experiment [2] (setting [3]), 1000 to 3000 nM; in experiment [2] (setting [4]), 1000 to 3000 nM.

As to `CCN1C(=O)[C@@H](NC(=O)c2nccc(C(F)(F)F)n2)[C@H](c2ccc(F)cc2)c2c(CNC(=O)/C=C/C(=O)N(C)C)nn(-c3ccccc3)c21` [Compound I-460], the IC50 was greater than 1000 nM in experiment [1] (Homo sapiens, TF-1, 3 h); 200 to 1000 nM in experiment [2] (setting [3]); 200 to 1000 nM in experiment [2] (setting [4]).

On to `C[C@@H](NC#N)c1nn(-c2ccccc2)c2c1[C@@H](c1ccc(F)cc1)[C@@H](NC(=O)c1cccc(C(F)(F)F)c1)C(=O)N2CCO` [Compound I-498], for which the IC50 in experiment [1] (Homo sapiens, TF-1, 3 h) is greater than 1000 nM; in experiment [2] (setting [3]), 1000 to 3000 nM; in experiment [2] (setting [4]), 1000 to 3000 nM.

Take `CCN1C(=O)[C@@H](NC(=O)CN2CC(c3ccccc3)CC2=O)[C@@H](C2CC2)c2c(C(=O)N3[C@H](C#N)C[C@H]4C[C@H]43)nn(C3CCOCC3)c21` (stereo partly drawn) [Compound I-629]: the IC50 in experiment [1] (Homo sapiens, TF-1, 3 h) was greater than 1000 nM; in experiment [2] (setting [3]) it was 1000 to 3000 nM; in experiment [2] (setting [4]), 1000 to 3000 nM.

For `CCN1C(=O)[C@H](NC(=O)c2cccc(C(F)(F)F)c2)[C@H](c2ccc(F)cc2)c2c(C(=O)N(CC#N)C3COC3)nn(-c3ccccc3)c21` (racemic) [Compound I-603], the IC50 in experiment [1] (Homo sapiens, TF-1, 3 h) was 100 to 1000 nM; in experiment [2] (setting [3]), no more than 200 nM; in experiment [2] (setting [4]) it was 1000 to 3000 nM.

For `CCN1C(=O)[C@@H](NC(=O)c2csc3c2CCC(C)C3)[C@@H](C2CC2)c2c(C(=O)N3[C@H](C#N)C[C@H]4C[C@H]43)nn(C3CCOCC3)c21` (stereo partly drawn) [Compound I-656], the IC50 is no more than 100 nM in experiment [1] (Homo sapiens), no more than 200 nM in experiment [2] (setting [3]) and no more than 200 nM in experiment [2] (setting [5]).

With `CCN1C(=O)[C@@H](NC(=O)c2nccc(C(F)(F)F)n2)[C@H](c2ccc(F)cc2)c2c(CC(=O)N[C@@H](C)C#N)nn(-c3ccccc3)c21` (single isomer, unassigned) [Compound I-451], the IC50 is greater than 1000 nM in experiment [1] (Homo sapiens, TF-1, 3 h); 1000 to 3000 nM in experiment [2] (setting [3]); 1000 to 3000 nM in experiment [2] (setting [4]).

`CCN1C(=O)[C@H](NC(=O)c2cccc(C(F)(F)F)c2)[C@H](c2ccc(F)cc2)c2c(C(=O)N3CCC[C@H]3C#N)nn(-c3cccc(OCCN4CCC5(CC4)COC5)c3)c21` [Compound I-616]: the IC50 is greater than 1000 nM in experiment [1] (Homo sapiens, TF-1, 3 h); 1000 to 3000 nM in experiment [2] (setting [3]); 1000 to 3000 nM in experiment [2] (setting [4]).

`CCN1C(=O)[C@@](C)(NC(=O)c2cccc(C(F)(F)F)c2)[C@@H](c2ccc(F)cc2)c2c([C@@H](C)NC#N)nn(-c3ccccc3)c21` [Compound I-539]: the IC50 in experiment [1] (Homo sapiens, TF-1, 3 h) was no more than 100 nM; in experiment [2] (setting [3]) it was no more than 200 nM; in experiment [2] (setting [5]), no more than 200 nM.

With `CCN1C(=O)[C@@H](NC(=O)c2cccc(C(F)(F)F)c2)[C@@H](c2ccc(F)cc2)c2c(C(=O)N3[C@H](C#N)C[C@H]4C[C@H]43)nn([C@@H]3CCOC3)c21` (single isomer, unassigned) [Compound I-482], the figures for the IC50 in experiment [1], in experiment [2] (setting [3]) and in experiment [2] (setting [5]) were no more than 100 nM, no more than 200 nM and no more than 200 nM, respectively.

Take `C=CC(=O)N[C@H](C)c1nn(-c2ccccc2)c2c1[C@@H](c1ccc(F)cc1)[C@H](NC(=O)c1nccc(C(F)(F)F)n1)C(=O)N2CC` [Compound I-533]: the IC50 in experiment [1] (Homo sapiens, TF-1, 3 h) is 100 to 1000 nM; in experiment [2] (setting [3]), 200 to 1000 nM; in experiment [2] (setting [4]), 200 to 1000 nM.

Take `CCN1C(=O)[C@@H](NC(=O)c2ccc3ncsc3c2)[C@@H](C2CC2)c2c(C(=O)N3[C@H](C#N)C[C@H]4C[C@H]43)nn(C3CCOCC3)c21` [Compound I-669]: the IC50 lay within 100 to 1000 nM in experiment [1] (Homo sapiens, TF-1, 3 h); 200 to 1000 nM in experiment [2] (setting [3]); 1000 to 3000 nM in experiment [2] (setting [4]).

`CCCn1nc(C(=O)N(CC#N)C2CC2)c2c1N(CC)C(=O)[C@H](NC(=O)c1cccc(C(F)(F)F)c1)[C@@H]2c1ccc(F)cc1` [Compound I-572]: the IC50 in experiment [1] (Homo sapiens, TF-1, 3 h) is greater than 1000 nM; in experiment [2] (setting [3]), 1000 to 3000 nM; in experiment [2] (setting [4]), 1000 to 3000 nM.

As to `CCN1C(=O)[C@H](NC(=O)c2cccc(C(F)(F)F)c2)[C@H](c2ccc(F)cc2)c2c(C(=O)N3[C@H](C#N)C[C@H]4C[C@H]43)nn([C@@H]3CCOC3)c21` (single isomer, unassigned) [Compound I-704], the IC50 in experiment [1] is 100 to 1000 nM; in experiment [2] (setting [3]) it was no more than 200 nM; in experiment [2] (setting [5]), 1000 to 3000 nM.

`CCN1C(=O)[C@@H](NC(=O)c2cccc(C(F)(F)F)c2)[C@@H](C2CCCC2)c2c(C(=O)N3CCC[C@H]3C#N)nn(C3CCOCC3)c21` [Compound I-469]: the IC50 in experiment [1] (Homo sapiens, TF-1, 3 h) is no more than 100 nM; in experiment [2] (setting [3]) it was no more than 200 nM; in experiment [2] (setting [4]), 1000 to 3000 nM.

Turning to `CCN1C(=O)[C@@H](NC(=O)c2cccc(C(F)(F)F)c2)[C@@H](c2ccc(F)cc2)c2c([C@@H](CO)NC#N)nn(-c3ccccc3)c21` [Compound I-487], the IC50 in experiment [1] (Homo sapiens, TF-1, 3 h) was 100 to 1000 nM; in experiment [2] (setting [3]) it was no more than 200 nM; in experiment [2] (setting [4]) it was 200 to 1000 nM.

On to `CCN1C(=O)[C@@H](NC(=O)c2cccc(C(F)(F)F)c2)[C@@H](c2ccc(F)cc2)c2c(CNC/C=C/C(=O)N3CCCC3)nn(-c3ccccc3)c21` [Compound I-400], for which the IC50 in experiment [1] (Homo sapiens, TF-1, 3 h) was 100 to 1000 nM; in experiment [2] (setting [3]), no more than 200 nM; in experiment [2] (setting [5]), no more than 200 nM.

In the case of `CCN1C(=O)[C@@H](NC(=O)c2cccc(C(F)(F)F)c2)[C@@H](C2CC2)c2c(C(=O)N3CCN(C)C[C@@H]3C#N)nn(C3CCOCC3)c21` (single isomer, unassigned) [Compound I-431], the IC50 in experiment [1] (Homo sapiens, TF-1, 3 h) was 100 to 1000 nM; in experiment [2] (setting [3]), 200 to 1000 nM; in experiment [2] (setting [4]), 200 to 1000 nM.

On to `CCN1C(=O)[C@H](NC(=O)c2cccc(C(F)(F)F)c2)[C@H](c2ccc(F)cc2)c2c(C(=O)N3CCC[C@H]3C#N)nn(-c3cccc(OCCN4CCN(C5COC5)CC4)c3)c21` [Compound I-648], for which the IC50 in experiment [1] (Homo sapiens, TF-1, 3 h) is greater than 1000 nM; in experiment [2] (setting [3]) it was 1000 to 3000 nM; in experiment [2] (setting [4]) it was 1000 to 3000 nM.

As for `CCN1C(=O)[C@@H](NC(=O)c2cccc(C(F)(F)F)c2)[C@@H](C2CC2)c2c(C(=O)N3[C@@H](C#N)C[C@@H]4C[C@@H]43)nn(C3CCOCC3)c21` [Compound I-703, N-((4S,5S)-3-((1S,3R,5S)-3-cyano-2-azabicyclo[3.1.0]hexane-2-carbonyl)-4-cyclopropyl-7-ethyl-6-oxo-1-(tetrahydro-2H-pyran-4-yl)-4,5,6,7-tetrahydro-1H-pyrazolo[3,4-b]pyridin-5-yl)-3-(trifluoromethyl)benzamide], the IC50 in experiment [1] (Homo sapiens, TF-1, 3 h) was greater than 1000 nM; in experiment [2] (setting [3]) it was 1000 to 3000 nM; in experiment [2] (setting [4]), 1000 to 3000 nM.

Take `CCN1C(=O)[C@@H](NC(=O)c2c(Cl)ccc(OC)c2F)[C@@H](C2CC2)c2c(C(=O)N3[C@H](C#N)C[C@H]4C[C@H]43)nn(C3CCOCC3)c21` [Compound I-697]: the IC50 was greater than 1000 nM in experiment [1] (Homo sapiens, TF-1, 3 h); 1000 to 3000 nM in experiment [2] (setting [3]); 1000 to 3000 nM in experiment [2] (setting [4]).

The term IC50 denotes the concentration at which inhibition is half-maximal.

The record behind these values is patent US20250163057A1, “DCN-1 MODULATING COMPOUNDS AND METHODS OF USE THEREOF” (Cellarity, Inc., priority 2023, published 2025).
